Data: US20150306232A1, “HYDROGELATORS COMPRISING D-AMINO ACIDS” (BRANDEIS UNIVERSITY, priority 2012, published 2015)
Residues, ends and D or L forms follow the SMILES beside them. *: point of attachment. Naproxen = COc1ccc2cc([C@H](C)C(=O)*)ccc2c1

How the values were obtained:
[1] = target: T1, COX-2 (human recombinant) enzyme (Homo sapiens, UniProt P35354); assay: COX Fluorescent Inhibitor Screening Assay, COX-2; format: biochemical
T1 construct: purchased Cayman Chemical 700100
T1 sequence (P35354 18-604): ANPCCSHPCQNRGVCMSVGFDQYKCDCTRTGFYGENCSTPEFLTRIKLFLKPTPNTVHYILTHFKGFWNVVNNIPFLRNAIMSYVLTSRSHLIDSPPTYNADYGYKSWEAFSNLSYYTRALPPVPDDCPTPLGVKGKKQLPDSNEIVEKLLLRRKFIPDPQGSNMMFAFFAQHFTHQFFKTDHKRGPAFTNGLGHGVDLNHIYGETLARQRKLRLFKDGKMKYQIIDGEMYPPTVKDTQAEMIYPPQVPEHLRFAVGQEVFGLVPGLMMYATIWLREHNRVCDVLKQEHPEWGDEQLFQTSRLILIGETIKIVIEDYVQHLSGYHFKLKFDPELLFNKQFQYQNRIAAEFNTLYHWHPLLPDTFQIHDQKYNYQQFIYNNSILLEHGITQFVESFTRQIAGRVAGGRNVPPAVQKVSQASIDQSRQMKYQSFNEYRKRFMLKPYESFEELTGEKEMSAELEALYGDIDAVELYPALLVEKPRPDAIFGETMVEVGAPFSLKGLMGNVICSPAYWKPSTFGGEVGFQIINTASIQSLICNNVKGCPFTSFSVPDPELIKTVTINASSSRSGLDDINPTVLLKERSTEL
Procedure: (§1) To study the drug efficacies of NSAID containing hydrogelators, here we used ‘COX Fluorescent Inhibitor Screening Assay Kit’ (700100; Cayman Chemical) to do in vitro inhibition assays for Npx and Npx containing hydrogelors 1, 2, 3, 4, 5, and 6. Each compound was tested by COX-1 (ovine) enzyme and COX-2 (human recombinant) enzyme separately in 96 well black assay plates. By utilizing the peroxidase component of COXs, we monitored the reaction between PGG2 and ADHP (10-acetyl-3,7-dihydroxyphenoxazine), which produced highly fluorescent compound resorufin. This resorufin can be easily analyzed by multimode detector with an excitation wavelength of 530-540 nm and an emission wavelength of 585-595 nm. All the compounds are assayed in triplicate. After the combination of 10 μl of inhibitors, 10 μl of Heme solution, 10 μL of fluorometric substrate, 10 μl of enzyme (either COX-1 or COX-2), and 150 μl of assay buffer, we quickly add 10 μl of arachidonic acid solution to initiate the reaction. Then we read the plate exactly after two minutes incubation at room temperature. In this experiment, we also measure the blank data without enzyme and inhibitors, and the control data without inhibitors. The IC50 values of these hydrogelators were read from their activity curves (FIG. 18), which were measured with 5 different concentrations of these hydrogelators (dissolved in DMSO).

COX-1 (ovine) enzyme = target: T2, COX-1 (ovine) enzyme (Ovis aries, UniProt P05979); assay: COX Fluorescent Inhibitor Screening Assay, COX-1; format: biochemical; settings: read-out: IC50 for inhibiting COX-1 enzyme
T2 construct: purchased Cayman Chemical 700100
T2 sequence (P05979 25-600): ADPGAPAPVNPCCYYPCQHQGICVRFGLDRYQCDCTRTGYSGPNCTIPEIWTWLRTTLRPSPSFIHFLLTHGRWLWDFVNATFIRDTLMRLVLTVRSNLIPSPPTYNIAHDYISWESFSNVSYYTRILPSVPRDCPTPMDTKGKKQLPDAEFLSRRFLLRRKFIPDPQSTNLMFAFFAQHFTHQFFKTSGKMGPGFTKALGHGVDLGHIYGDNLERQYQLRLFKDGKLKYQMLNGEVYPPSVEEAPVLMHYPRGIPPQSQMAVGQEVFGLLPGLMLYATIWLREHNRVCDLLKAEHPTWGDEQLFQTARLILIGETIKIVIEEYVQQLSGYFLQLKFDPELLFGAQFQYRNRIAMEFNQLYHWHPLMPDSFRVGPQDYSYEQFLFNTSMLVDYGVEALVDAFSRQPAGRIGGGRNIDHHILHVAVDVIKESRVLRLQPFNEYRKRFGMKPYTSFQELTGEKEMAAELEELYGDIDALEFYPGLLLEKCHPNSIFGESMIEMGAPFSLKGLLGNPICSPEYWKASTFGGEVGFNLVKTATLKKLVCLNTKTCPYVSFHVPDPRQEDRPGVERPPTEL
Procedure: as §1

[2] = rheological measurement of Npx containing hydrogels; format: physicochemical; settings: hydrogel 0.8 wt %
Procedure: Rheological tests were conducted on TA ARES G2 rheometer with TA Orchestrator Software. 25 mm cone-plate was used during the experiment. 0.2 mL of hydrogel sample was placed on the cone-plate.
The measurement performs at the frequency of 6.28 rad/s (0.1 to 10% strain, frequency=10 rads^−1, 10 points per decade). Sweep mode is “log” and temperature was carried out at 25° C. The critical strain (γc) value was determined from the storage-strain profiles of the hydrogel sample. The strain applied to the hydrogel sample increased from 0.1 to 100% (10 rad/s and 25° C.). Over a certain strain, a drop in the elastic modulus was observed, and the strain amplitude at which storage moduli just begins to decrease by 5% from its maximum value was determined and taken as a measure of the critical strain of the hydrogels, which correspond to the breakdown of the cross-linked network in the hydrogel sample.
The frequency ranges from 200 rad/s to 0.1 rad/s, depending on the viscoelastic properties of each sample. A suitable strain was used to ensure the linearity of dynamic viscoelasticity.

HeLa cells [3] = assay: MTT cytotoxicity of Npx containing hydrogelators; format: cell-based
Procedure: The HeLa cells in good condition were seeded into 96-well plate (2×10^5 cells/well) in 100 μL of MEM medium with 10% FBS. With 12 hours of incubation at 37° C. and 5% CO2, the HeLa cells were attached to bottom of 96-well plate. Then the medium was replaced by another 100 μL of growth medium that contained serial diluents of our compounds and the cells were incubated at 37° C. and 5% CO2 for additional 72 hours. The compounds were stocked at 10 μM in DMSO, followed by further dilutions with MEM medium. All of these serial diluents were adjusted to contain 0.5% of DMSO.

[4] = in vitro release of hydrogelators from hydrogels; format: physicochemical; settings: 0.8 wt % hydrogel, PBS pH 7.4, 37° C., after 24 hours
Procedure: After studying their drug efficacies, the sustained release of Npx-containing hydrogelators from 0.8 wt % of hydrogels was studied. We incubated 100 μL of hydrogels at 37° C. for 24 hours with 100 μL of PBS buffer solution (pH 7.4), which is refreshed and monitored at 1 h, 2 h, 4 h, 8 h, 12 h, and 24 h. […] After 24 hours, hydrogel 1 slowly and steadily released 6.5% of the hydrogelator. […] Hydrogels 5 and 6 release 35.8% and 31.7% of hydrogelators after 24 h.
To illustrate the in vitro release profile of hydrogelators, we prepared 100 μL of the hydrogels formed by 1 (0.8 wt %, pH 4.0), 2 (0.8 wt %, pH 7.6), 3 (0.8 wt %, pH 7.6), 4 (0.8 wt %, pH 7.6), 5 (0.8 wt %, pH 7.0), and 6 (0.8 wt %, pH 7.0). With the addition of PBS buffer (100 μL, pH 7.4) onto the surface of hydrogels, the gels were incubated at 37° C. for 24 hours. The release solutions (100 μL) were taken and refreshed at […], 2 h, 4 h, 8 h, 12 h, and 24 h, which were detected by analytical HPLC at 276 nm for the quantities of released Npx containing hydrogelators 1, 2, 3, 4, 5, and 6.

HeLa cells [5] = assay: cells; format: cell-based; settings: Homo sapiens, HeLa; 72 hours at 37° C., MTT; read-out: IC50, HeLa cell viability
Procedure: We seeded […] (cells/well) of health HeLa cells into 96-well plate with 100 μL of MEM medium supplemented with 10% fetal bovine serum (FBS), 100 U/mL penicillin and 100 mg mL21 streptomycin. The incubation at 37° C. and 5% CO2 for 12 hours allowed HeLa cells to attach the bottom of 96-well plate. Then we replaced the medium by another 100 μL of growth medium that contained serial diluents of our compounds (0.5% DMSO) and then incubated the cells at 37° C. and 5% CO2 for additional 72 hours. During the measurement of proliferation for HeLa cells, which were assayed into three days, we added 10 μL of (3-(4,5-Dimethylthiazol-2-yl)-2,5-diphenyltetrazolium bromide (MTT, 0.5 mg/mL) into the assigned wells in their corresponding day every 24 hours, which was followed by adding 100 μL of 0.1% sodium dodecyl sulfate (SDS) 4 hours later. Then we collected the assay results after another 24 hours incubation. Since the mitochondrial reductase in living cells reduced MTT to purple fomazan, the absorbance at 595 nm of the whole solution was finally measured by DTX 880 Multimode Detector. With MEM medium as blank and untreated HeLa cells as control, we measure each concentration of these compounds in triplicate. The IC50 values of our hydrogelators were read from their activity curves (with the measurement of 8 different concentrations) in day 3.

[6] = toxicity and relative weight of treated mice; format: in vivo, Balb/c mice; settings: single injection of 40 mg/kg, formulated with Cremophor EL, 40 mg/kg
4T1-luciferase cells = assay: in vivo evaluation of antitumor activity; set-up: species or system Balb/c mice; settings: intravenous 4×10 mg/kg every other day from day 0
Procedure: After inoculating female Balb/c mice with 2×10^5 of 4T1-luciferase cells in the mammary fat pad, we allow tumors grow until their sizes reach about 500 mm^3, and randomly divide them into different treatment groups: (1) intravenous injections of PBS vehicle control; (2) intravenous injection of 4×10 mg/kg Taxol® every other day from day 0 for indicated times; (3) a single intratumoral injection of 10 mg/kg Taxol containing hydrogels in 40 μL volume. With the treatments of 16 (Taxol; paclitaxel), 20a, 20b, or PBS buffer (control) for 14 days, we monitor the relative tumor sizes (calculated by the formula: tumor volume=length×width×(Length+Width)/2) and relative weights of mice every two days. […] Therefore, we have to divide 40 mg/kg of 16 into four injections with each injection of 10 mg/kg. […] This promising result warrants further investigation of the D-peptidic hydrogels of Taxol on animal models.
Female Balb/c mice were incubated with 2×10^5 4 T1-luciferase cells in the mammary fat pad. Tumor growth was monitored every other day and the tumor volume was calculated by the formula: length×width×(Length+Width)/2. Once tumors size reached around 500 mm^3, we randomly divided mice into different treatment groups. […] Mice weight was monitored after receiving treatment and presented as relative weight (%).

COX-2 = COX-2 (Homo sapiens, UniProt P35354); settings: read-out: reported IC50 of naproxen to COX-2; literature; cited from earlier work

## COc1ccc2cc([C@H](C)C(=O)N[C@@H](Cc3ccccc3)C(=O)N[C@@H](Cc3ccccc3)C(=O)N[C@@H](CCCCN)C(=O)N[C@@H](Cc3ccc(O)cc3)C(=O)O)ccc2c1 [L-4, Naproxen-L-Phe-L-Phe-L-Lys-L-Tyr, reference compound] (Naproxen-FFKY-OH)
[1]
  selectivity S for COX-2 (IC50 of COX-1/IC50 of COX-2): about 3
COX-1 (ovine) enzyme
  IC50: 115 µM

## COc1ccc2cc([C@H](C)C(=O)N[C@H](Cc3ccccc3)C(=O)N[C@H](Cc3ccccc3)C(=O)N[C@H](Cc3ccc(O)cc3)C(=O)O)ccc2c1 [compound 2, Npx-ffy]
[2]
  critical strain: 1.6%
[2]; 6.28 rad/s
  storage modulus G′: 6.2×10^2 Pa
HeLa cells [3]
  cell proliferation based on the numbers of HeLa cells: no promotion of the cell proliferation
[4]
  hydrogelator released from hydrogel: 8.0%

## CC(=O)O[C@H]1C(=O)[C@@]2(C)[C@H]([C@H](OC(=O)c3ccccc3)[C@]3(O)C[C@H](OC(=O)[C@H](O)[C@@H](NC(=O)c4ccccc4)c4ccccc4)C(C)=C1C3(C)C)[C@]1(OC(C)=O)CO[C@@H]1C[C@@H]2O [compound 16, paclitaxel]
HeLa cells [5]
  IC50: 0.0458 µM
[6]; listed as Taxol
  lethality: Mice died immediately
[6]; listed as Taxol®
  lethality: may cause the death of mouse immediately
4T1-luciferase cells
  relative tumor size vs control: smaller than those of the control group after day 8

## COc1ccc2cc([C@H](C)C(=O)O)ccc2c1 [naproxen]
COX-2
  IC50: 2 to 28.4 µM
